Here are results for two substances from paper PMC8703873, “Structure and Activity of a Selective Antibiofilm Peptide SK-24 Derived from the NMR Structure of Human Cathelicidin LL-37” (Pharmaceuticals, 2021).

No end group written: not given here.

Series [1] concerns S. aureus USA300 LAC. As to the kind of experiment: Membrane permeabilization (propidium iodide). Format: cell-based, Staphylococcus aureus. The following applies: peptide 8 µM; propidium iodide fluorescence, 2 h, PBS, 37 °C. How it is done:
(§1) Membrane permeabilization was evaluated as described. In brief, bacteria were inoculated and grown overnight. A second inoculation was made and let bacteria grow to the exponential phase. Bacteria were then spun, washed, and resuspended in the same volume of PBS. A series of peptide solutions (10×) was made via two-fold dilution in a 96-well plate (10 µL each). All wells were aliquoted with 2 µL of propidium iodide (20 µM), followed by adding 88 µL of S. aureus USA300 or A. baumannii B28-16 (OD600 ~0.11 in PBS). The plate was incubated at 37 °C with continuous shaking at 100 rpm in a FLUOstar Omega microplate reader (BMG Labtech Inc., Cary, NC, USA). Fluorescence was recorded every 5 min for 2 h with excitation and emission wavelengths of 485 and 620 nm. The data were analyzed by the vendor’s software using averaged values from duplicated experiments.

Series [2] deals with A. baumannii B28-16. As to the kind of experiment: Membrane permeabilization (propidium iodide). The following applies: peptide 16 µM; propidium iodide fluorescence, 2 h, PBS, 37 °C. Type of series: cell-based, Acinetobacter baumannii. How it is done: as §1
In a further series the test system is E. faecium V284-17. Type of series: cell-based, Enterococcus faecium. To be noted: V284-17.
Another series concerns K. pneumoniae E406-17. Type of series: cell-based, Klebsiella pneumoniae. The following applies: E406-17. How it is done: (§2) The antibiotic-resistant pathogens used in this study include the Gram-positive bacteria Enterococcus faecium V286-17 and Staphylococcus aureus USA300 LAC and the Gram-negative bacteria Klebsiella pneumoniae E406-17, Acinetobacter baumannii B28-16, Pseudomonas aeruginosa E411-17, and Escherichia coli E423-17. All bacteria were cultivated in tryptic soy broth (TSB) at 37 °C, 220 rpm.
(§3) The antibacterial activity of peptides was evaluated using a standard broth microdilution protocol with minor modifications. In brief, peptides were made at various concentrations, 10 μL per well in a 96-well polystyrene microplate. Logarithmic phase bacterial cultures (i.e., optical density (OD) at 600 nm ≈ 0.5) were diluted to 0.001 OD, and aliquots of 90 μL were added to each well. Untreated bacterial culture and medium were included as positive and negative controls, respectively. Plates were incubated at 37 °C overnight and read at 630 nm using a ChroMate Microplate Reader (Awareness Technology, Palm City, FL, USA). […] Our previously designed peptide 17BIPHE2 [32] was included as a positive control, and RI-10, a peptide without antibacterial activity in rich media, was utilized as a negative control.

The test system of another series is S. aureus USA300. Type of series: cell-based, Staphylococcus aureus. How it is done:
as §2, §3

The next series relates to E. coli E423-17. Type of series: cell-based, Escherichia coli. Here is the method:
as §2, §3

Series [3] deals with S. aureus USA300 LAC. As to the kind of experiment: Membrane depolarization (DiBAC4(3)). Format: cell-based, Staphylococcus aureus. To be noted: peptide 8 µM; similar trends at 16 and 32 µM; DiBAC4(3) fluorescence. How it is done: The experiment was conducted as described. In brief, an overnight culture of S. aureus USA300 LAC was subcultured in a fresh TSB medium and grown to the exponential phase. Cells were spun using centrifugation and washed twice with PBS, and resuspended in twice the volume of PBS containing 25 mM glucose and incubated at 37 °C for 15 min. For membrane depolarization measurements, 500 nM (final concentration) of the dye DiBAC4 (3) (bis-(1,3- dibutylbarbituric acid) trimethine oxonol) (AnaSpec, San Jose, CA, USA) was added and vortexed gently. Aliquots of 90 μL of the energized bacteria solution were loaded to the wells, and the plate was fed into a FLUOstar Omega microplate reader. Fluorescence was read for 20 min at excitation and emission wavelengths of 485 and 520 nm, respectively, to get dye normalization. Then 10 μL of diluted peptide solutions were added and gently mixed. Fluorescence readings were recorded for 40 min, where Triton X-100 (0.1%) was used as a positive control.

Series [4] deals with A. baumannii B28-16 preformed biofilms. As to the kind of experiment: Disruption of preformed biofilms (XTT). Type of series: cell-based, Acinetobacter baumannii. Here is the method:
(§4) The antibiofilm activities of peptides against the preformed biofilms of A. baumannii B28-16 and S. aureus USA300 LAC were evaluated as follows. Bacteria in the logarithmic growth phase were adjusted to a cell density of 10^5 colony forming unit (CFU)/mL. Two hundred microliter cells were seeded into each well of the 96-well plates. The plates were incubated at 37 °C to allow for the formation of biofilm for 24, 48, and 72 h, respectively. The planktonic cells were then removed, followed by a wash. The biofilms were then treated with 20 µL of 10× two-fold diluted peptides and 180 µL of fresh TSB media for 24 h at 37 °C. Cultures treated with water without peptide served as the positive control, and media treated with water was used as the negative control. To quantify the antibiofilm activity of the peptides, the XTT [2, 3-bis (2-methyloxy-4-nitro-5-sulfophenyl)-2H-tertazolium-5-carboxanilide] assay staining method was used to quantitate the live cells. Absorbance was read at 450 nm using a ChroMate microliter plate reader. The percentage biofilm growth for the peptide was plotted by assuming 100% biofilm growth in untreated bacterial control wells. Data were represented as mean ± standard deviation (SD). The data are statistically significant at p < 0.05. Plots were generated using GraphPad Prism v7 (GraphPad Software, San Diego, CA, USA).
A general note: Tetrazolium assays rely on reduction of a dye to a coloured formazan, in cell work by metabolically active cells.

The subject of series [5] is A. baumannii B28-16. Type of series: cell-based, Acinetobacter baumannii. Here is the method:
as §2, §3

A short description of series [6]: HPLC retention time (measure of peptide hydrophobicity). Type of series: physicochemical. To be noted: chromatographic, Waters C8 symmetry hydrophobic column, as described in ref 34; used as indicator of peptide hydrophobicity. An excerpt: In the membrane-bound LL-37 structure determined by 3D NMR spectroscopy, a hydrophobic gap exists (Figure 1A). The location of a hydrophilic S9 on the hydrophobic surface of LL-37 splits the long helix into two hydrophobic domains (gold sticks). The SK-24 peptide we identified here corresponds to the long hydrophobic domain [26]. The amino acid sequence of SK-24, along with LL-37 and its derived antimicrobial peptides, is depicted in Figure 1B. Peptide parameters, including net charge, hydrophobic content, Boman index, GRAVY, hydrophobicity, and hydrophobic moment of each peptide, were calculated using online tools, such as the APD [8] and HeliQuest (Table 1). Except for the shortest RI-10 (net charge +3), LL-37 and its other derived peptides have net charges +5 or +6, above the average net charge (+3.3) of natural antimicrobial peptides registered in the APD [8, 35, 36]. Overall, the hydrophobic percentages (Pho) of these peptides calculated in the APD are proportional to the hydrophobicity and hydrophobic moment calculated by HeliQuest in Table 1. Of note, LL-37 has the highest net charge (+6) and Boman index but the lowest Pho%, GRAVY, and hydrophobic moment.
All peptides were chemically synthesized and purified to >95% (Genemed Synthesis, San Antonio, TX, USA). The quality of each peptide was determined based on mass spectrometry (MS) and high-performance liquid chromatography (HPLC). Peptide stock solutions were freshly made by solubilizing in autoclaved distilled water, and their concentrations were quantitated using UV spectroscopy based on the absorbance difference at 215 and 225 nm as described. Peptide retention time was measured on a Waters C8 symmetry hydrophobic column as described. Other chemicals were purchased from Sigma (St. Louis, MO, USA) unless specified.

In a further series the test system is P. aeruginosa E411-17. Type of series: cell-based, Pseudomonas aeruginosa. The following applies: E411-17. Here is the method: as §2, §3
The test system of series [7] is S. aureus USA300 LAC preformed biofilms. As to the kind of experiment: Disruption of preformed biofilms (XTT). Type of series: cell-based, Staphylococcus aureus. To be noted: 24 h preformed biofilms of S. aureus USA300; XTT. Here is the method: as §4
The subject of another series is Human red blood cells. As to the kind of experiment: Hemolytic assay. The following applies: red cells of human, 1 h. Format: cell-based. Here is the method: Human red blood cells (hRBCs, the UNMC Blood Bank) were washed three to five times with saline (Fisher Scientific, Waltham, MA, USA) at 800 g for 10 min each time, until the supernatant was clear. The supernatant was discarded, and hRBCs were suspended in saline at a final density of 2%. Ninety microliters of hRBC suspensions were added to each well of 96-well plates containing 10 µL of 10× serially diluted peptides. After incubation at 37 °C for 1 h, the plates were centrifuged at 1500 rpm for 5 min. About 80 µL of the supernatant was carefully pipetted to a new 96-well microplate and read at 545 nm to measure the amount of hemoglobin released. The positive control was 1% Triton X-100, and the negative control was saline. The percentage of hRBC lysis was calculated based on the hemoglobin released.

Series [8] has as its system clinical and antibiotic-resistant pathogens (panel of Table 3). Format: cell-based. To be noted: all pathogens of Table 3; peptide 32 µM. How it is done: as §2, §3
Series [9] has as its system S. aureus USA300 LAC preformed biofilms. The following applies: S. aureus USA300 LAC and other clinical strains (USA200, USA400, Mu50); cited from earlier work. Here is the method:
Here, we compared the antibiofilm activity of SK-24 with that of GF-17, GI-20, and 17BIPHE2 against the 24 h preformed biofilms of S. aureus USA300. […] Only SK-24 a ...

The MIC is the lowest concentration that inhibits growth of the organism. Lower therefore signals inhibition by little substance. Regarding GIKEFKRIVQRIKDFLRNLV-NH2 [GI-20], the “Membrane permeation” value in the series with S. aureus USA300 LAC [1] is reported as “more powerful”; in the series on A. baumannii B28-16 [2] it was “superior to SK-24”. In addition, the minimal inhibitory concentration (MIC) in the series on E. faecium V284-17 was 2 µM; in the series on K. pneumoniae E406-17, over 32 µM; in the series on S. aureus USA300, 2 to 4 µM; in the series on E. coli E423-17 it was 32 µM; against A. baumannii B28-16 [5], 8 µM; in the series on P. aeruginosa E411-17 it was over 32 µM. Further, the “Membrane depolarization ability (order, words)” value with S. aureus USA300 LAC [3] was “GI-20 > 17BIPHE2 > GF-17~SK-24 > LL-37”. The Biofilm disruption in series [4] (72 h preformed biofilms, peptide 64 μM, highest concentration tested) is reported as 30–50%. The “Disruption of 48 h biofilms” value in series [4] (biofilms established for 48 h, 24 h treatment) is given as “only worked at 64 μM”. In addition, the “Reduction of 24 h biofilms” value in series [4] (biofilms established in 24 h, 24 h treatment) is “dose-dependent manner”. In addition, the “tHPLC (HPLC retention time)” value in series [6] worked out at 12.681 min. Moreover, the “Antibiofilm effect on 24 h preformed biofilms” value in [7] was “antibiofilm effect in a dose-dependent manner”. Besides, in the series with Human red blood cells, the “HC50 (50% hemolytic concentration)” value is reported as ~ 160 µM.
For RIVQRIKDFL-NH2 [RI-10], in series [8], the “Inhibitory activity at 32 µM” value is recorded as “did not show any inhibitory activity”. Further, the “Membrane permeation” value in the series on S. aureus USA300 LAC [1] and in the series with A. baumannii B28-16 [2] was “some membrane permeation” throughout. In addition, the MIC with E. faecium V284-17, against K. pneumoniae E406-17, in the series with S. aureus USA300, against E. coli E423-17, with A. baumannii B28-16 [5] and against P. aeruginosa E411-17 was over 32 µM throughout. Further, the “Membrane depolarization ability (order, words)” value in the series on S. aureus USA300 LAC [3] is on record as “unable to produce a similar effect”. Also, the “Disruption of preformed biofilms” value in series [4] (biofilms formed for 24, 48 and 72 h, peptide at 8, 16, 32 or 64 μM for 24 h) is listed as “unable to disrupt”. In addition, in series [6], the “tHPLC (HPLC retention time)” value turned out to be 8.831 min. Moreover, the “Disruption of 24 h preformed biofilms (words, found previously)” value in [9] was “neither LL-37 nor RI-10 was able to disrupt”.
